Test results published in patent US20100048521A1, “COMBINATION OF A GLUCO-KORTICOID AND BETA-CYCLODEXTRIN CONJUGATED VITAMIN A-DERIVATE COMPLEX” (priority 2006, published 2010).

System: skin (epidermis+dermis) of healthy female volunteers
Test: Comparative study of skin atrophy: skin thickness and density by ultrasound (Dermascan C) after topical treatment of the inner arm
Assay type: in vivo, human
Description: Comparative Study of Hydrocortisone and Hydrocortisone Combined with β-cyclodextrin Conjugated Retinyl Palmitate Complex with Respect to the Development of Skin Atrophy
The study was run according to the protocol described below and was approved by the local regional ethics committee before the study was initiated.
The study included 10 healthy female volunteers. The average age was 43.2 years. They received treatment with hydrocortisone cream 1% on the inner part of one arm (right or left) once daily for 4 weeks. […] On the opposite arm they were treated with hydrocortisone cream 1% and after 10 minutes Nourella Cream containing β-cyclodextrin conjugated retinyl palmitate complex was applied (Pharma Medico; Aarhus, Denmark). Treatments were randomized so that half of the participants treated the right arm with hydrocortisone and the left with the combination and vice versa.
The skin was inspected clinically in the beginning and at the end of the study and objective measurement of the skin thickness and density was done by ultrasound (Dermascan C).

[1] = after 4 weeks of once daily topical treatment, inner arm, ultrasound, ns

## C[C@]12CCC(=O)C=C1CC[C@@H]1[C@@H]2[C@@H](O)C[C@@]2(C)[C@H]1CC[C@]2(O)C(=O)CO [Hydrocortisone, hydrocortisone]
4 weeks once daily topical, change vs baseline, p=0.07 between arms
  Average reduction of skin thickness (epidermis+dermis): 15%
[1]
  Skin density, After 4 weeks: 1830.0 ns pixel
  Skin thickness, After 4 weeks: 0.954 ns mm
After 4 weeks of treatment, ultrasound, p=0.08
  Development of low echogenic dark areas (dermis density): Low echogenic dark areas develop
After treatment for 4 weeks, ultrasound picture
  Cross-section of the skin: thickness and density vs baseline (figure): The skin gets thinner and the density decrease
baseline, before treatment, inner arm, ultrasound
  Skin density, Baseline: 1503.5 pixel
baseline, before treatment, inner arm, ultrasound, 10 healthy female volunteers
  Skin thickness, Baseline: 1.122 mm
Used for 4 weeks, FIG. 1 and FIG. 2
  Skin atrophy: significant skin atrophy
